# Values quoted from earlier work, collected in patent publication US20060083768A1, “Method of thickening a coating using a drug” (ATRIUM MEDICAL CORPORATION, priority 2004, published 2006).
# Tested on: Porcine Coronary Model
# Conditions: stents coated with agent solubilized in eicosapentaenoic acid oil vs eicosapentaenoic acid oil coated stents
smiles,measurement,value
C=C1[C@@H](C)[C@H]2[C@H](Cc3ccccc3)NC(=O)[C@]23[C@H](OC(C)=O)/C=C/[C@@](C)(O)C(=O)[C@@H](C)C/C=C/[C@H]3[C@@H]1O [cytochalasin D],less area stenosis compared to the control group,38%
same,less intimal hyperplasia compared to the control group,39%
